Laboratory results as given in the supplement of paper PMC10307832.

Tests used:
Test in all cases: relative viability (nuclei count vs DMSO), 5 days (fraction); higher = more cells survive
[1] = compound: C1=CC=C(C(=C1)C2=CC=C(C=C2)C3=CSC4=C3C(=C(C(=O)N4)C#N)O)O + CC(=O)c1c(C)c2cnc(Nc3ccc(N4CCNCC4)cn3)nc2n(C2CCCC2)c1=O [Palbociclib] (partner 0.5 µM)
Outline: (§1)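 A single step with final 0.05% Triton X-100, 1% formaldehyde and 1 ug/ml Hoechst fixed the cells and stained nuclei 5 days after treatment. Lung cancer cell lines in 1536-well plates had been treated by pin tool the day after seeding with one drug alone or a fixed anchor-drug dose plus five library-drug doses (not always all listed) in √10 steps, and nuclei were counted on 4× images. Relative viability is the ratio of nuclei in treated wells to nuclei in vehicle wells, taken as the median of duplicate plates.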

[2] = compound: CC1=CN2C(=O)C=C(N=C2C(=C1)C(C)NC3=CC=CC=C3)N4CCOCC4 [TGX 221] + N=C(N)NC(=N)NCCc1ccccc1 [Phenformin] (partner 250 µM)
Outline: as §1

[3] = compound: CC1=CN2C(=O)C=C(N=C2C(=C1)C(C)NC3=CC=CC=C3)N4CCOCC4 [TGX 221] + O=C(c1cc(Cc2n[nH]c(=O)c3ccccc23)ccc1F)N1CCN(C(=O)C2CC2)CC1 [Olaparib] (partner 8 µM)
Outline: as §1

[4] = compound: O=C(CCCCCCNC(=O)c1cnc(N(c2ccccc2)c2ccccc2)nc1)NO [Ricolinostat] + N=C(N)NC(=N)NCCc1ccccc1 [Phenformin] (partner 250 µM)
Outline: as §1

Cell Line	relative viability ([1]; first compound 0.253 µM)	relative viability ([1]; first compound 0.8 µM)	relative viability ([1]; first compound 2.53 µM)	relative viability ([1]; first compound 8 µM)	relative viability ([2]; first compound 0.08 µM)	relative viability ([2]; first compound 0.253 µM)	relative viability ([2]; first compound 0.8 µM)	relative viability ([2]; first compound 2.53 µM)	relative viability ([2]; first compound 8 µM)	relative viability ([3]; first compound 0.08 µM)	relative viability ([3]; first compound 0.253 µM)	relative viability ([3]; first compound 0.8 µM)	relative viability ([3]; first compound 2.53 µM)	relative viability ([3]; first compound 8 µM)	relative viability ([4]; first compound 0.08 µM)	relative viability ([4]; first compound 0.253 µM)	relative viability ([4]; first compound 0.8 µM)	relative viability ([4]; first compound 2.53 µM)	relative viability ([1]; first compound 0.08 µM)
HCC-366	0.371	0.357	0.509	0.395	0.617	0.575	0.642	0.572	0.613	0.331	0.303	0.407	0.344	0.357	0.509	0.606	0.619	0.432	–
HCC-827	0.518	0.479	0.475	0.524	0.386	0.4	0.344	0.359	0.334	0.647	0.55	0.615	0.526	0.0337	0.345	0.4	0.396	0.435	0.492
HOP-62	0.536	0.497	0.532	0.382	0.641	0.639	0.728	0.714	0.777	0.408	0.435	0.536	0.707	0.585	0.586	0.657	0.623	0.503	0.545
IA-LM	–	–	–	–	–	–	–	–	–	0.866	0.857	0.846	0.858	0.799	–	–	–	–	–
LC-2-ad	0.406	0.461	0.499	0.441	0.556	0.526	0.569	0.67	0.599	0.732	0.69	0.832	0.745	0.73	0.47	0.621	0.5	0.44	0.416
LCLC-97TM1	0.233	0.268	0.26	0.204	0.394	0.399	0.419	0.405	0.418	0.403	0.423	0.364	0.304	0.31	0.314	0.417	0.45	0.204	0.24
LCLC-103H	0.407	0.451	0.491	0.449	0.302	0.344	0.311	0.321	0.324	0.747	0.738	0.793	0.764	0.717	0.252	0.323	0.371	0.325	0.445
LK-2	0.749	0.629	0.913	0.517	0.382	0.474	0.498	0.348	0.567	0.65	0.752	0.551	0.632	0.862	0.415	0.547	0.499	0.449	0.515
LOU-NH91	0.542	0.535	0.544	0.534	0.679	0.74	0.692	0.784	0.674	0.95	0.904	0.892	0.951	0.783	0.516	0.726	0.713	0.744	0.501
LU99A	0.371	0.44	0.469	0.392	0.785	0.831	0.9	0.93	0.834	0.251	0.258	0.297	0.251	0.249	0.738	0.705	0.716	0.597	0.389
LXF-289	0.595	0.681	0.629	0.675	0.496	0.479	0.546	0.458	0.538	1.02	1.03	1.09	1.03	1.11	0.495	0.463	0.538	0.529	0.612
NCI-H23	0.512	0.593	0.51	0.467	0.814	0.699	0.811	0.836	0.773	0.302	0.287	0.284	0.296	0.294	0.72	0.749	0.8	0.706	0.445
NCI-H322M	0.468	0.467	0.483	0.49	0.761	0.735	0.715	0.758	0.682	0.699	0.701	0.876	0.716	0.681	–	0.839	0.767	0.761	0.461
NCI-H358	0.17	0.124	0.135	0.123	0.355	0.31	0.296	0.382	0.324	0.626	0.565	0.705	0.545	0.582	0.265	0.362	0.424	0.432	0.13
NCI-H441	0.21	0.184	0.275	0.21	0.791	0.911	0.79	0.785	1.09	0.578	0.571	0.515	0.524	0.589	–	0.956	0.889	0.643	0.208
NCI-H596	–	–	–	–	0.726	0.753	0.852	0.678	0.874	0.662	0.675	0.746	0.744	0.572	0.836	0.749	0.7	0.694	–
NCI-H1299	–	–	–	–	–	–	–	–	–	0.971	0.952	1.02	1.03	0.943	–	–	–	–	–
NCI-H1563	–	–	–	–	0.708	0.618	0.671	0.654	0.597	–	–	–	–	–	0.596	0.647	0.685	0.671	–
NCI-H1623	–	–	–	–	0.543	0.602	0.62	0.566	0.555	–	–	–	–	–	0.559	0.582	0.557	0.556	–
NCI-H1648	0.282	0.319	0.261	0.274	–	–	–	–	–	–	0.452	0.802	0.764	0.842	–	–	–	–	–
NCI-H1703	–	–	–	–	–	–	–	–	–	0.449	0.462	0.389	0.396	0.255	–	–	–	–	–
